Results: patent publication US20210347780A1, “CDPK1 INHIBITORS, COMPOSITIONS, AND METHODS RELATED THERETO” (Vyera Pharmaceuticals, LLC, priority 2018, published 2021)

Biological target: T1, T. gondii CDPK1 (tgCDPK1) (Toxoplasma gondii, UniProt Q9BJF5)
T1 sequence (Q9BJF5 1-507): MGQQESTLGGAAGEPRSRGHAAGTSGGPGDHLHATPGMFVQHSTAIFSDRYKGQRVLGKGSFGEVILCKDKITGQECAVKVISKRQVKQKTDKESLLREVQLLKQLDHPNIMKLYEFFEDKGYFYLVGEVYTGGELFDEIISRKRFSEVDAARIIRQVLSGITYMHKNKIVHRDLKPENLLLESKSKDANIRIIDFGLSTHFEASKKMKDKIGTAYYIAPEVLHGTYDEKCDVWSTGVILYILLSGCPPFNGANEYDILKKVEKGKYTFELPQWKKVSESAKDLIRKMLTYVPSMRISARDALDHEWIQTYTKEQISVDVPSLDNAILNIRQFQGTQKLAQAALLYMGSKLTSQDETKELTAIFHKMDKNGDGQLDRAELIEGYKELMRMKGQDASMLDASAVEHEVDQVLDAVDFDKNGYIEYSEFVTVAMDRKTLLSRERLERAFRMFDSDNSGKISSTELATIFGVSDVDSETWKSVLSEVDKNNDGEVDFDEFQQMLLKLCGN
Experiment: biochemical
Conditions: inhibition of T. gondii CDPK1; at least three independent replicates; read-out: tgCDPK1 IC50
Protocol: Certain of the compounds prepared as described above were assayed to determine their IC50 for inhibition of T. gondii CDPK1 (tgCDPK1). At least three independent replicates of the assay were conducted for each compound tested.

Molecule | IC50 [nM]
CC(C)(C)OC(=O)N1CCC(Cn2nc(Oc3cc(Cl)ccn3)c3c(N)ncnc32)C(F)(F)C1 (stereo not drawn) [Compound 212] | 31.2
Nc1ncnc2c1c(Oc1cc(Cl)ccn1)nn2CC1CCNCC1(F)F (stereo not drawn) [Compound 213] | 9.7
Nc1ncnc2c1c(Oc1cc(Cl)ccn1)nn2C1CCCCC1 [Compound 214] | 4.6
N#Cc1ccnc(Oc2nn(C3CCCCC3)c3ncnc(N)c23)c1 [Compound 215] | 12.3
Nc1ncnc2c1c(Oc1cc(Cl)ccn1)nn2C1CCCOC1 (stereo not drawn) [Compound 216] | 15.8
COc1ccnc(Oc2nn(C3CCOC3)c3ncnc(N)c23)c1 (stereo not drawn) [Compound 219] | 77.4
COc1ccnc(Oc2nn(C3CCOCC3)c3ncnc(N)c23)c1 [Compound 220] | 54.4
N#Cc1ccnc(Oc2nn(CC3CC3)c3ncnc(N)c23)c1 [Compound 221] | 24.1
Nc1ncnc2c1c(Oc1cc(Cl)ccn1)nn2C1CCCNC1 (stereo not drawn) [Compound 222] | 24.6
COc1ccnc(Oc2nn(CC3CC3)c3ncnc(N)c23)c1 [Compound 223] | 25.1
CC(C)(C)OC(=O)N1CCCC(n2nc(Oc3cc(Cl)ccn3)c3c(N)ncnc32)C1 (stereo not drawn) [Compound 224] | 43.7
Nc1ncnc2c1c(Oc1cc(Cl)ccn1)nn2CC1CC1 [Compound 225] | 9
CN(C)C1CCC(n2nc(Oc3cc(C(F)(F)F)ccn3)c3c(N)ncnc32)CC1 (stereo not drawn) [Compound 227] | 28.5
COC(=O)C1CCC(n2nc(Oc3cc(C(F)(F)F)ccn3)c3c(N)ncnc32)CC1 (stereo not drawn) [Compound 228] | 25.4
Nc1ncnc2c1c(Oc1cc(C(F)(F)F)ccn1)nn2C1CCC(O)C1 (stereo not drawn) [Compound 230] | 24.2
Nc1ncnc2c1c(Oc1cc(C(F)(F)F)ccn1)nn2[C@H]1CC[C@@H](O)CC1 [Compound 231] | 18.6
Nc1ncnc2c1c(Oc1cc(C(F)(F)F)ccn1)nn2C1CCC(N)CC1 (stereo not drawn) [Compound 232] | 24.3
Nc1ncnc2c1c(Oc1cc(C(F)(F)F)ccn1)nn2[C@H]1CCCC[C@H]1F [Compound 233] | 34.4
Nc1ncnc2c1c(Oc1cc(C(F)(F)F)ccn1)nn2C1CC2CNC1C2 (stereo not drawn) [Compound 234] | 76.7
Nc1ncnc2c1c(Oc1cc(C(F)(F)F)ccn1)nn2[C@H]1CC[C@H](O)CC1 [Compound 235] | 15.9
COC1CCCCC1n1nc(Oc2cc(C(F)(F)F)ccn2)c2c(N)ncnc21 (stereo not drawn) [Compound 236] | 85.6

Molecule | IC50 [nM]
CO[C@H]1CC[C@H](n2nc(Oc3cc(C(F)(F)F)ccn3)c3c(N)ncnc32)CC1 [Compound 237] | 38.1
CO[C@H]1CC[C@@H](n2nc(Oc3cc(C(F)(F)F)ccn3)c3c(N)ncnc32)CC1 [Compound 238] | 44.7
Nc1ncnc2c1c(Oc1cc(C(F)(F)F)ccn1)nn2[C@H]1CC[C@@H](N)CC1 [Compound 239] | 23.1
CC(C)(C)OC(=O)N[C@H]1CC[C@@H](n2nc(Oc3cc(C(F)(F)F)ccn3)c3c(N)ncnc32)C1 [Compound 240] | 12.1
Nc1ncnc2c1c(Oc1cc(C(F)(F)F)ccn1)nn2[C@H]1CC[C@@H](CO)CC1 [Compound 242] | 15.1
Nc1ncnc2c1c(Oc1cc(C(F)(F)F)ccn1)nn2[C@H]1CC[C@H](CO)CC1 [Compound 243] | 10.3
Nc1ncnc2c1c(Oc1cc(C(F)(F)F)ccn1)nn2CC1(C(F)(F)F)CC1 [Compound 244] | 31
Nc1ncnc2c1c(Oc1cccc(Cl)c1)nn2Cc1cc[nH]c1 [Compound 247] | 19.4
Nc1ncnc2c1c(Oc1cc(C(F)(F)F)ccn1)nn2[C@H]1COC[C@H](N)C1 [Compound 248] | 60.7
Nc1ncnc2c1c(Oc1cc(C(F)(F)F)ccn1)nn2[C@H]1COC[C@@H](N)C1 [Compound 249] | 55
Nc1ncnc2c1c(Oc1cccc(Cl)c1)nn2CC1(CO)CC1 [Compound 250] | 34.9
Nc1ncnc2c1c(Oc1cc(C(F)(F)F)ccn1)nn2[C@@H]1CC[C@H](N)C1 [Compound 251] | 42.1
Nc1ncnc2[nH]nc(Oc3cccc(Cl)c3)c12 [Compound 252] | 77.3
CC(C)(C)n1nc(Cc2c[nH]c3ccccc23)c2c(N)ncnc21 [Compound 254] | 9
CC(C)(C)n1nc(Cc2cccc(C#N)c2)c2c(N)ncnc21 [Compound 255] | 13.4
Nc1ncnc2c1c(Oc1cc(C(F)(F)F)ccn1)nn2C1CCCC1 [Compound 257] | 23.4
CC(C)(C)n1nc(Oc2cc(C(F)(F)F)ccn2)c2c(N)ncnc21 [Compound 258] | 13.9
CC(C)(C)n1nc(Oc2cc(C#N)ccn2)c2c(N)ncnc21 [Compound 259] | 18.1
CC(C)(C)n1nc(Oc2cc(C(N)=O)ccn2)c2c(N)ncnc21 [Compound 260] | 40.5
Nc1ncnc2c1c(Oc1cc(Cl)ccn1)nn2C1CCC(F)(F)CC1 [Compound 261] | 35.3
CC(C)(C)n1nc(Oc2cc(Cl)ccn2)c2c(N)ncnc21 [Compound 262] | 12

Molecule | IC50 [nM]
N#Cc1ccnc(Oc2nn(CC3CCNCC3(F)F)c3ncnc(N)c23)c1 (stereo not drawn) [Compound 263] | 39.2
CC(C)(C)n1nc(Oc2cc(O)ccn2)c2c(N)ncnc21 [Compound 264] | 13.9
CC(C)(CO)Cn1nc(Oc2cccc(Cl)c2)c2c(N)ncnc21 [Compound 265] | 47.9
C=CC(O)Cn1nc(Oc2cc(C(F)(F)F)ccn2)c2c(N)ncnc21 (stereo not drawn) [Compound 268] | 11.7
Nc1ncnc2c1c(Oc1cc(C(F)(F)F)ccn1)nn2CC1CCB(O)O1 (stereo not drawn) [Compound 269] | 28.6
Nc1ncnc2c1c(Oc1cc(C(F)(F)F)ccn1)nn2CC1CC(B(O)O)C1 (stereo not drawn) [Compound 270] | 28.7
Nc1ncnc2c1c(Oc1cc(C(F)(F)F)ccn1)nn2C1CCNCC1(F)F (stereo not drawn) [Compound 271] | 19.8
Nc1ncnc2c1c(Oc1cc(C(F)(F)F)ccn1)nn2C1(C(F)(F)F)CCC1 [Compound 272] | 20.7
Nc1ncnc2c1c(Oc1cc(C(F)(F)F)ccn1)nn2CC1CC(O)C1 (stereo not drawn) [Compound 273] | 35.8
Nc1ncnc2c1c(Oc1cc(C(F)(F)F)ccn1)nn2C1CC(F)(F)CCC1O (stereo not drawn) [Compound 274] | 35
CC(=O)Oc1ccnc(Oc2nn(C3CCC(F)(F)CC3)c3ncnc(N)c23)c1 [Compound 277] | 21.5
Nc1ncnc2c1c(Oc1cc(O)ccn1)nn2[C@H]1CCCC[C@@H]1O [Compound 278] | 18.9
Nc1ncnc2c1c(Oc1cc(C(F)(F)F)ccn1)nn2C1CCCCC1(F)F (stereo not drawn) [Compound 279] | 35.7
Nc1ncnc2c1c(Oc1cc(C(F)(F)F)ccn1)nn2CC(F)(F)F [Compound 280] | 38.6
COc1ccnc(Oc2nn([C@@H]3CCCC[C@H]3O)c3ncnc(N)c23)c1 [Compound 281] | 26.2
COc1ccnc(Oc2nn([C@H]3CCCC[C@H]3O)c3ncnc(N)c23)c1 [Compound 282] | 41.3
CCOC(=O)C1(n2nc(Oc3cc(C(F)(F)F)ccn3)c3c(N)ncnc32)CCC1 [Compound 287] | 728
Nc1ncnc2c1c(Oc1cc(C(F)(F)F)ccn1)nn2C1(C(=O)O)CCC1 [Compound 288] | 11900
Nc1ncnc2c1c(Oc1cc(C(F)(F)F)ccn1)nn2C1CCCCC1=O (stereo not drawn) [Compound 289] | 98.5
Nc1ncnc2c1c(Oc1cc(O)ccn1)nn2C1CC(F)C1 (stereo not drawn) [Compound 290] | 8.7
(trans)-3-(4-amino-3-((5-fluoro-1H-indol-3-yl)methyl)-1H-pyrazolo[3,4-d]pyrimidin-1-yl)cyclobutan-1-ol [Compound 154] | 11.8
